Results from EP0042354A2, “Imidazobenzothiadiazepines, process for their preparation and pharmaceutical compositions containing them” (CIBA-GEIGY AG, priority 1980, dated 1981).

Tests used:
Format in all cases: in vivo
Totenkopf-Aeffchen = assay: Extrapyramidal side effects and neurological symptoms observed in haloperidol-sensitised squirrel monkeys
Source text: Die bei den klassischen Neuroleptica bekannten extrapyramidalen Nebenwirkungen (ENW) lösen in Totenkopf-Aeffchen, welche vorher einer wiederholten antipsychotischen Behandlung unterworfen waren, charakteristische motorische Syndrome aus. Diese Bewegungsstörungen bestehen aus dystonischen Kõrperhaltungen und dyskinetischen Bewegungen, welche besser den bei Menschen auftretenden ENW entsprechen, als dies die Katalepsie oder Zittern tut. So können potentielle extrapyramidale Nebenwirkungen, aber gegebenenfalls auch andere neurologische Symptome, z.B. Ptosis, durch Beobachtung von ausgewachsenen Totenkopf-Aeffchen (von einem Gewicht von 700-1200 g) beurteilt werden. Die Tiere werden einmal wöchentlich oder einmal in zwei Wochen mit Haloperidol (1,25 mg/kg) behandelt. Nach einer derartigen Behandlung von ungefähr 2-4 Monaten treten 1-6 Stunden nach der Verabreichung von Haloperidol offensichtliche dystonische Körperhaltungen und dyskinetische Bewegungen auf. Sonst können in anderen Zeitpunkten keine abnormalen Bewegungen der Affen festgestellt werden. Nach dem Auftreten von, durch Haloperidol hervorgerufenen Dyskinesien, wird die oben geschilderte Behandlungsweise abgebrochen. Die Tiere erhalten nachher lediglich alle 4-8 Wochen 1,25 mg/kg Haloperidol und sie werden als Kontrolltiere bei der Untersuchung von Verbindungen dieser Erfindung eingesetzt.
Die Affen werden in Intervallen von 2, 4 und 6 Stunden nach der Behandlung beurteilt. Die Versuche werden in verschlossenen Zellen, welche mit ferngesteuerten Video-Beobachtungsapparaten und mit einem einheitlichen Summton-Generator ausgerüstet sind, durchgeführt. Die Beurteilungen der Tiere werden durch zwei voneinander unabhängige Beobachter vorgenommen, welche keine Kenntnis von den verabreichten Verbindungen und vom Ziel des Versuchs haben. Während der neurologischen Untersuchungen werden die Affen von einer dritten Person behandelt. Zuerst werden die Tiere durch das Video-System beobachtet. Dann betreten die Beobachter die Versuchstelle und notieren die Reaktionen der Affen als "motorisch" (das Tier geht umher in der Zelle), "visuell" (eine offenbare Reaktion, jedoch kein Umhergehen) und "keine" (keine Reaktion). Es werden auch Aktivität, Köperhaltung, Zittern, vermehrter Speichelfluss und andere neurologische Symptome berücksichtigt. Besondere Beachtung wird dem Vorhandensein oder Abwesenheit von "bizarren", vorher genannten, distonischen Körperhaltungen und dyskinetischen Bewegungen gewidmet. Die die Tiere behandelnde Person nimmt dann den Affen aus der Zelle heraus. Dabei werden die Reaktionen des Affen auf die Annäherung der mit einem Handschuh geschützten Hand, auf die erste Berührung beim Anfassen undauf die Hemmnisse nach der Gefangennahme, separat aufgeschrieben. Die Vokalisation während der Gefangennahme wird auch beurtielt. Die Person, welche das Tier behandelt, wertet dann den Körpertonus und die Pupillengrösse aus und stellt fest, ob Ptosis vorhanden ist. Hat die vorhergehende Untersuchung nahegelegt, dass Katalepsie aufgetreten ist, so wird dieses Symptom ausgewertet. Der Affe wird zuerst, Kopf nach unten, auf den Boden, dann zum Zelleneingang und schliesslich in die Beobachtungszelle gestellt. Bleibt der Affe in allen diesen Stellungen mindestens 5 Sekunden im wesentlichen unbeweglich, so wird das Vorhandensein der Katalepsie bejaht. […]

[1] = test system: Totenkopf-Aeffchen (squirrel monkeys); assay: Sidman avoidance test (conditioned avoidance, lever press to postpone foot shock), monkeys; conditions: Saimiri, in Primates, compound given 30, 90 and 210 min before the test, total dose, read-out: Gesamtdosis, welche die Vermeidungs-Reaktionen vermindert
Source text: (§1) Die Verbindungen der Erfindung zeigen wertvolle pharmakologische Eigenschaften, in erster Linie neuroleptische Wirkungen. Diese können in Tierversuchen, vorzugsweise an Säugern, z.B. Mäusen, Ratten oder Affen, als Testobjekte, nachgewiesen werden. Die genannten Verbindungen können ihnen enteral oder parenteral, vorzugsweise oral oder subkutan, intravenös oder intraperitoneal, z.B. durch Steckkapseln oder in Form von Stärke enthaltenden Suspensionen bzw. wässerigen Lösungen, verabreicht werden. Die verwendete Dosis kann in einem Bereich von ungefähr zwischen 0,01 und 100 mg/kg/Tag, vorzugsweise ungefähr 0,05 und 10 mg/kg/Tag, insbesonder zwischen 0,1 und 5 mg/kg/Tag, liegen.
(§2) Die genannten neuroleptischen Eigenschaften können an ausgewachsenen Ratten oder Totenkopf-Aeffchen (squirrel monkeys) nachgewiesen werden. Die Tiere sind zur Betätigung eines Hebels trainiert, wodurch sie einem auf den Fuss verabreichten elektrischen Schock ausweichen können. Jeder Hebeldruck verschiebt den Schock um 30 Sekunden. Vergisst das Tier den Hebel innerhalb des genannten Zeitintervalls einmal zu drücken, so werden alle 15 Sekunden kurze (0,5 sec.) elektrische Schocks abgegeben, bis das Tier den Hebel wieder betätigt. […]

Ratten = assay: Sidman avoidance test (conditioned avoidance, lever press to postpone foot shock), rats; conditions: Rattus norvegicus, compound given 30, 90 and 210 min before the test, total dose, read-out: Gesamtdosis, welche die Vermeidungs-Reaktionen vermindert
Source text: as §1, §2

CN1CCN(C2=Nc3cc(Cl)ccc3Nc3ccccc32)CC1 [Clozapin]
dyskinetische Bewegungen / Dyskinesien (Totenkopf-Aeffchen; 10 mg/kg, monkeys rated 2, 4 and 6 h after treatment): nicht aufgetreten
vermehrter Speichelfluss (Totenkopf-Aeffchen; monkeys rated 2, 4 and 6 h after treatment, doses as in the dyskinesia test): bei jedem untersuchten Affen

O=C(CCCN1CCC(O)(c2ccc(Cl)cc2)CC1)c1ccc(F)cc1 [Haloperidol]
dyskinetische Bewegungen / Dyskinesien (Totenkopf-Aeffchen; 0,625 mg/kg (low dose), monkeys rated 2, 4 and 6 h after treatment): an fünf Affen feststellbar
dyskinetische Bewegungen / Dyskinesien (Totenkopf-Aeffchen; 1,25 mg/kg, monkeys rated 2, 4 and 6 h after treatment): schwere Dyskinesie

CN1CCN(C2=Nc3ccccc3Sc3nccn32)CC1 [Beispiel 1, 5-(4-Methylpiperazino)-imidazo[2,1-b][1,3,5]benzothia-diazepin]
vermehrter Speichelfluss (Totenkopf-Aeffchen; in vivo): nicht festellbar
minimal effective dose [1]: ≤ 10 mg/kg
minimal effective dose (Ratten): ≤ 10 mg/kg
